# From US20120270251A1, “INHIBITION OF THE ACTIVITY OF KINASE AND SYNTHETASE ENZYMES” (CSIR, priority 2009, published 2012)
# Like-named read-outs stand apart in the source and are kept apart here.
# Tests used:
# Format in all cases: biochemical
# [1] = target: Escherichia coli deadenylylated glutamine synthetase (GS0) (Escherichia coli, UniProt P0A9C5); conditions: for Hill factor (h): allosteric sigmoidal model
# [2] = tested on: Saccharomyces cerevisiae hexokinase; test: Hexokinase steady-state kinetics, ATP vs C8D-ATP
# [3] = target: T1, AK1 (Homo sapiens, UniProt P00568); test: AK1 enzyme activity with ATP versus deuterated ATP
# T1 sequence (P00568 1-194): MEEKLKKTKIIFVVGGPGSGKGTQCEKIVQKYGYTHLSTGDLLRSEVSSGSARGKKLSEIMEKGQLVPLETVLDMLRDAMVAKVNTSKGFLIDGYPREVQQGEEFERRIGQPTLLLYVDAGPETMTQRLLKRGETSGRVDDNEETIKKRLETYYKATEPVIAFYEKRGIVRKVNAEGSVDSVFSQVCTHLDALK
# Description: The assay is carried out in the presence of ATP and AMP measuring the formation of ADP. […] A kinetic isotope effect is also obtained when comparing the activity of the enzyme when the reaction is carried out in the presence of AMP and deuterated AMP. A further KIE is obtained when both deuterated ATP and deuterated AMP are used in the reaction. […] The KIE is obtained by dividing the activity of the enzyme in the presence of the proteated species (vH) by the enzyme activity in the presence of the deuterated species (vD) and is vH/vD=0.5. […] The proposed basic reaction mechanisms by which all forms of kinase are regulated occurs via either the formation of an immonium species at N7, which in turn induces the formation of a carbene at C8 or via the delocalization of electrons away from the C8 rendering the C8 more acidic. An immonium species may be induced at N7 by (1) protonation via a coordinated HCO3^−, (2) carboxylation of the N7, or (3) the coordination of an amino acid side chain within the active site such as a arginine, glutamine, lysine or histidine. The different forms of regulation are then based on the mechanism by which the carbene formed at C8 is stabilized and the mechanism by which the C8-H is deprotonated or via the interaction of the protein coordinated amino acid side chains affecting the delocalization of electrons around the adenyl ring of the nucleotide.
# [4] = target: Escherichia coli adenylylated glutamine synthetase (GS12) (Escherichia coli, UniProt P0A9C5); conditions: for Hill factor (h): allosteric sigmoidal model
# [5] = target: T2, Escherichia coli acetate kinase (Escherichia coli, UniProt P0A6A3); test: Acetate kinase steady-state kinetics, ATP vs C8D-ATP
# T2 construct: purchased Sigma A7437
# Source text: Hexokinase from Saccharomyces cerevisiae Type F-300 (Sigma, H4502) and Acetate kinase from E. coli (Sigma, A7437) were purchased. The human adenylate kinase (AK1) gene in vector pLIG-SC1 was obtained from the Structural Genomics Consortium (code AK1A). The His-tagged AK1 was produced in Escherichia coli Origami (DE3) and purified using the Bio-Rad Profinia Purification System. […] The Mycobacterium tuberculosis shikimate kinase gene in pET15b (Novagen) was obtained from the group of Chris Abell, Cambridge University, UK. The his-tagged MtSK was produced in E. coli BL21 (DE3) and purified using the Bio-Rad Profinia Purification System. The pure protein was dialysed against 50 mM Tris (pH 7.5) and 1,000 mM NaCl. Adenylylated (GS12) and deadenylylated (GS0) glutamine synthetase were prepared as outlined below.
# The assay was incubated at 30° C. for 30 minutes and stopped by the addition of 1 μl of 50% TCA. The formation of ADP was analysed by HPLC.
# The results are reflected in FIGS. 19 to 25. […] The best-fit to the data was obtained for the specified kinetic model using the non-linear regression algorithms as outlined using the GraphPad Prism® 5 software. […] These response curves were then used to define the KIE by the conventional estimation of KIE from KIE=vH/vD. The KIED was also determined using the following function: […]
# [6] = target: B. stearothermophilus phosphofructokinase (Geobacillus stearothermophilus, UniProt P00512); conditions: for Hill factor (h): allosteric sigmoidal model
# [7] = target: T1, AK1; test: Effect of ATPS and C8-D ATPS on synthesis of ADP by AK1; conditions: 0.2-1.0 mM, 0.6 mM ATP, 0.6 mM AMP, pH 7.2
# Description: Increasing concentrations of ATPS or C8-D ATPS were added; 0.2, 0.4, 0.6, 0.8, and 1.0 mM. Assays, in a final volume of 1 ml, were allowed to proceed for 45 mins at 37° C., before 6 μl 100% TCA was added to stop the reaction. […] The assay where no ATPS or C8-D ATPS was added produced 0.19 mM ADP.
# [8] = tested model: Allosteric sigmoidal
# T2 sequence (P0A6A3 whole entry): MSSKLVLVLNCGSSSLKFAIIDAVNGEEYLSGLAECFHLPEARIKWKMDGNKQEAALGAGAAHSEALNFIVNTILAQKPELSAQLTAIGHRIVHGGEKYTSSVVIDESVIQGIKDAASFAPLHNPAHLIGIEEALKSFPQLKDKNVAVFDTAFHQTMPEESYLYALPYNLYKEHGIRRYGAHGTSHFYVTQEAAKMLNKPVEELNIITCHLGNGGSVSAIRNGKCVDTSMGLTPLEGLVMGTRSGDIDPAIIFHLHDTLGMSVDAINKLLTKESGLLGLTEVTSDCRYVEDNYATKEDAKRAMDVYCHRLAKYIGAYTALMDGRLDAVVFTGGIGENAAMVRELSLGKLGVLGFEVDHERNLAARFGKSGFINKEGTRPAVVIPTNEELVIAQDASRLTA
# Escherichia coli deadenylylated glutamine synthetase (GS0), sequence (P0A9C5 2-469): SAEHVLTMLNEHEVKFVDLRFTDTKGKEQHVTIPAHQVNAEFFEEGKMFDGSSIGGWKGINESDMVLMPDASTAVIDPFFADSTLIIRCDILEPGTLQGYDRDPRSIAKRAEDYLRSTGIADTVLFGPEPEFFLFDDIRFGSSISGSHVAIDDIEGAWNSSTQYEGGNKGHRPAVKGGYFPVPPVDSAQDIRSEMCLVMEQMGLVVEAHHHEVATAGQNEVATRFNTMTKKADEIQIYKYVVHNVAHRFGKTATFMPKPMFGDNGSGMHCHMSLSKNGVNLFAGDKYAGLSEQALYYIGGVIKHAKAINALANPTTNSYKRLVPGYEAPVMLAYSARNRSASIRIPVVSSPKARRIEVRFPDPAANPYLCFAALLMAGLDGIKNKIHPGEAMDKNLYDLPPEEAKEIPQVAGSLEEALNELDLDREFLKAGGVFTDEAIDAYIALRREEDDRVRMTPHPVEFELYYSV
# Escherichia coli adenylylated glutamine synthetase (GS12), sequence (P0A9C5 2-469): as above
# B. stearothermophilus phosphofructokinase, sequence (P00512 whole entry): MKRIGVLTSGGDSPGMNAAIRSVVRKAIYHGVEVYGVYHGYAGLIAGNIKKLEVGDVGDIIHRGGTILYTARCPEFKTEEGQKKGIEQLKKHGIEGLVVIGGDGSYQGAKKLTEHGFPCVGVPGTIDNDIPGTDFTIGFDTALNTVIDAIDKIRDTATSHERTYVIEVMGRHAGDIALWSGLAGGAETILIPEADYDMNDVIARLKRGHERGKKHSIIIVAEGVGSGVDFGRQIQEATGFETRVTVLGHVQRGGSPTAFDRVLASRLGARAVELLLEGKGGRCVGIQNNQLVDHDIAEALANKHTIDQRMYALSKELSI
SMILES,Hill factor (h) [1],"fit to kinetic model [1, 8]",fit to kinetic model ([1]; tested model: Michaelis-Menton),"fit to kinetic model [2, 8]",fit to kinetic model ([2]; tested model: Michaelis-Menton),Hill factor (h) [4],"fit to kinetic model [4, 8]",fit to kinetic model ([4]; tested model: Michaelis-Menton),"fit to kinetic model [5, 8]",fit to kinetic model ([5]; tested model: Michaelis-Menton),Hill factor (h) [6],inhibition of AK1 [7],further results
"Nc1ncnc2c1ncn2[C@@H]1O[C@H](COP(=O)(O)OP(=O)(O)OP(=O)(O)O)[C@@H](O)[C@H]1O [ATP, adenosine triphosphate, reference compound]",3.10,Allosteric sigmoidal,Fit ambiguous,Allosteric sigmoidal,Fit ambiguous,1.77,Allosteric sigmoidal,Fit ambiguous,Allosteric sigmoidal,Fit ambiguous,1.37,,Hill factor (h) ([2]; allosteric sigmoidal model): 1.75; reduction in AK1 enzyme activity using ATP compared with ATP deuterated at position C8 ([3]; low ATP concentrations): 50%; Hill factor (h) ([5]; allosteric sigmoidal model): 2.08
"Nc1ncnc2c1ncn2[C@@H]1O[C@H](COP(=O)(O)OP(=O)(O)OP(O)(O)=S)[C@@H](O)[C@H]1O [ATPS, Adenosine 5′-[γ-thio]triphosphate, reference compound]",,,,,,,,,,,,inhibit,
[2H]c1nc2c(N)ncnc2n1C1OC(COP(=O)(O)OP(=O)(O)OP(O)(O)=S)C(O)C1O (stereo not shown) [C8-D ATPS],,,,,,,,,,,,inhibit,inhibition of AK1 compared with ATPS [7]: significantly more inhibition
Nc1ncnc2c1ncn2[C@@H]1O[C@H](COP(=O)(O)OP(=O)(O)OP(=O)(O)O)[C@@H](O)[C@H]1O [C8D-ATP],4.08,Allosteric sigmoidal,Fit ambiguous,Fit ambiguous,Michaelis-Menton,0.92,Allosteric sigmoidal,Fit ambiguous,Fit ambiguous,Michaelis-Menton,1.79,,"KIEvmax ([1]; KIE at maximum enzyme activity): 1; KIED ([1]; asymptote at Vmax): 1; KIED ([1]; low ATP concentrations): > 5; KIEvmax ([2]; KIE at maximum enzyme activity): 1; KIED ([2]; asymptote at Vmax): 1; KIED ([2]; low ATP concentrations): > 5; reduction in AK1 activity in the presence of deuterated ATP ([3]; high ATP concentrations): ≥ 50%; KIEvmax ([4]; KIE at maximum enzyme activity): 2; KIED ([4]; asymptote at Vmax): 0.5; KIED ([4]; low ATP concentrations): > 5; KIEvmax ([5]; KIE at maximum enzyme activity): 1; KIED ([5]; asymptote at Vmax): 1; KIED ([5]; low ATP concentrations): > 5; KIEvmax ([6]; KIE at maximum enzyme activity): 2; KIED ([6]; asymptote at Vmax): 0.5; KIED ([6]; low ATP concentrations): > 5; fit to kinetic model [6, 8]: Allosteric sigmoidal; fit to kinetic model ([6]; tested model: Michaelis-Menton): Fit ambiguous"
